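Cultured in 96-well plates, cells were exposed to test compound for 48 hours across five concentrations. GI50 = concentration required for 50% inhibition of growth. TGI is the concentration that stops growth completely.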
Assays:
Experiment in all cases: NCI anticancer screen, dose series, 48 h
[1] = system: K-562 leukemia
[2] = system: UO-31 renal
[3] = system: SW-620 colon
[4] = system: RXF 393 renal
[5] = system: OVCAR-3 ovarian
[6] = system: HCT-15 colon
[7] = system: OVCAR-4 ovarian
[8] = system: HL-60(TB) leukemia
[9] = system: NCI-H23 lung
[10] = system: M14 melanoma

Compound | GI50 [1] [µM] | TGI [1] [µM] | GI50 [2] [µM] | TGI [2] [µM] | GI50 [3] [µM] | TGI [3] [µM] | GI50 [4] [µM] | TGI [4] [µM] | GI50 [5] [µM] | TGI [5] [µM] | GI50 [6] [µM] | TGI [6] [µM] | GI50 [7] [µM] | TGI [7] [µM] | GI50 [8] [µM] | TGI [8] [µM] | GI50 [9] [µM] | TGI [9] [µM] | GI50 [10] [µM] | TGI [10] [µM]
COc1ccc(/C=C/c2cc(OC)c(OC)c(OC)c2)cc1NC(=O)/C=C/c1ccc(F)cc1 | 1.44 | > 100 | 2.3 | > 100 | 2.85 | > 100 | 1.41 | 4.88 | 2.43 | 6.23 | 4 | > 100 | 5.95 | > 100 | 1.8 | 7.47 | 3.41 | > 100 | 2.81 | > 100
CC1=CSC2=NC(c3ccc(Cl)c(Cl)c3)=CC(c3ccc(Cl)cc3)N12 (stereo not given) | > 100 | > 100 | > 100 | > 100 | > 100 | > 100 | > 100 | > 100 | > 100 | > 100 | > 100 | > 100 | > 100 | > 100 | > 100 | > 100 | > 100 | > 100 | > 100 | > 100
COc1cc([C@H](C)c2ccc3ccccc3c2)cc(OC)c1OC | 0.0411 | > 100 | 0.665 | > 100 | 0.0974 | > 100 | 0.22 | > 100 | 0.272 | > 100 | 0.311 | > 100 | 1.17 | > 100 | 0.184 | 0.745 | 0.696 | > 100 | 0.197 | > 100
CCCCCCC/C=C/[C@H]1O[C@]23C(=O)C[C@@]4(C[C@@H](OC5OC(CO)C(O)C(O)C5O)C[C@@H]4[C@H]2C=C1C)OC3=O (stereo not given in full) | 2.2 | 18.5 | 3.61 | 7.57 | 3.56 | 11.7 | 4.41 | 9.15 | 2.28 | 6.71 | 2.53 | 9.43 | 3.37 | 8.07 | 1.2 | 7.53 | 5.75 | 15.8 | 3.58 | 8.43
COc1cc2c(cc1C)NC(=O)/C2=C\c1cc(OC)c(OC)c(OC)c1 | 23.2 | 70.1 | > 100 | > 100 | > 100 | > 100 | 14.2 | 36.1 | > 100 | > 100 | > 100 | > 100 | > 100 | > 100 | 13.8 | 45.7 | 29.7 | > 100 | > 100 | > 100
C=CC(=O)N1CCCC(n2nc(-c3ccc(Oc4ccccc4)cc3)c3c(N)ncnc32)C1 (stereo not given) | 4.13 | 24.4 | 1.4 | 13.5 | 16.1 | 33.4 | 2.68 | 11.4 | 6.23 | 20.4 | 12.6 | 28.9 | 7.12 | 21.2 | 21.9 | 44.5 | 12.1 | 28.7 | 7.59 | 21.4
Cc1cc(S(=O)(=O)Nc2nc(N)nc(N3N=CCC3C)n2)c(S)cc1Cl (stereo not given) | – | > 10 | – | > 10 | – | > 10 | – | > 10 | – | > 10 | – | > 10 | – | > 10 | – | > 10 | – | > 10 | – | > 10
CC#CC(O)(C(=O)OC1CCCN(C)C1)C1=CC=CCC1 (stereo not given) | – | > 100 | – | > 100 | – | > 100 | – | > 100 | – | > 100 | – | > 100 | – | > 100 | – | > 100 | – | > 100 | – | > 100
COC(=O)CCC/C=C\C[C@H]1C=CC(=O)/C1=C/C[C@@H](O)CCc1cccc(C(F)(F)F)c1 | 2.23 | 7.98 | 1.73 | 3.29 | 3.28 | 10.6 | 2.08 | 3.79 | 1.97 | 4.08 | 1.67 | 4.18 | 3.47 | 14.1 | 2.53 | 7.17 | 2.03 | 5.18 | 2.1 | 6.07
CN(C)CCNc1nc2ccccc2c2c1c1c(n2Cc2ccccc2)-c2ccccc2C1=O | 3.89 | 21.2 | 14.3 | 35.4 | 7.96 | 24 | 11.5 | 37.6 | 17.2 | 34.8 | 10.7 | 26.1 | 12.6 | 27 | 15.2 | 34.1 | 14.8 | 39.7 | 18.6 | 40.7
COc1cc2nc(-c3ccc(C(F)(F)F)cc3)cc(OCCCN3CCOCC3)c2cc1OC | 1.18 | 15.9 | 1.77 | 7.3 | 3.51 | 15.4 | 0.706 | 3.65 | 3.72 | 18.4 | 0.52 | 5.57 | 10.3 | 23.2 | 9.58 | 47.3 | 2.36 | 12 | 0.355 | 1.55
Nc1nc(-c2cccc([N+](=O)[O-])c2)c(Br)c(=O)[nH]1 | – | > 100 | – | > 100 | – | > 100 | – | > 100 | – | > 100 | – | > 100 | – | > 100 | – | > 100 | – | > 100 | – | > 64.2
CC[N+](CCCCCCCCCC[N+](CC)(c1ccccn1)c1ccccn1)(c1ccccn1)c1ccccn1 | 0.49 | 16 | 2.09 | 12.6 | 2.14 | 15.6 | 2.5 | 21.2 | 1.09 | 10.1 | 3.2 | 18.8 | 1.01 | > 100 | 0.554 | 2.93 | 0.696 | 17.9 | 2.57 | 30.5
CCCCNc1nc(NC(C)(C)C)nc(NC(C)(C)C)n1 | 6.46 | > 100 | 7.41 | > 100 | 7.2 | > 100 | 8.07 | 76.9 | 12.6 | > 100 | 2.97 | > 100 | 3.03 | > 100 | 15.7 | > 100 | 5.89 | > 100 | 15.7 | > 100
COc1cc(-c2cnn(C)c2)ccc1Nc1ncc2ccnc(N[C@@H](C)C(C)(C)C)c2n1 | > 72.8 | > 100 | > 100 | > 100 | 1.46 | > 100 | 8.98 | > 100 | > 89.8 | > 100 | 0.651 | > 100 | > 46.8 | > 100 | > 100 | > 100 | > 53.7 | > 100 | > 63.8 | > 100
CC(=O)O/N=C/c1ncccc1CO | – | > 100 | – | > 100 | – | > 100 | – | > 100 | – | > 100 | – | > 100 | – | > 100 | – | > 100 | – | > 100 | – | > 100
CN1CCN(Cc2ccc(NC(=O)c3cncc(C#Cc4cnc(N)c5ccc(F)cc45)c3)cc2C(F)(F)F)CC1 | 0.0128 | 0.683 | 1.15 | 4.51 | 1.3 | 4.83 | 0.826 | 2.73 | 2.35 | 7.21 | 1.03 | 4.62 | 0.667 | 4.23 | 1.05 | 4.42 | 2.4 | 7.86 | 0.974 | 4.4
Cc1nc(N)sc1C(=O)/C=C/c1ccc(/C=C/C(=O)c2sc(NC(=O)CCCCCCCCC(=O)Nc3nc(C)c(C(=O)/C=C/c4ccc(/C=C/C(=O)c5sc(N)nc5C)cc4)s3)nc2C)cc1 | – | > 100 | – | > 100 | – | > 100 | – | > 100 | – | > 100 | – | > 100 | – | > 100 | – | > 100 | – | > 100 | – | > 100
CC(C)=CC(C(O)c1ccccc1)S(=O)(=O)c1nccn1C (stereo not given) | – | > 100 | – | > 100 | – | > 100 | – | > 100 | – | > 100 | – | > 100 | – | > 100 | – | > 100 | – | > 100 | – | > 100
CC(C)c1ccc(Cc2cnc(NC(=O)c3cc(Br)cs3)s2)cc1 | 0.436 | > 100 | 3.8 | > 100 | 2.98 | > 100 | 1.75 | 5.97 | 2.75 | > 100 | 0.789 | > 100 | 4.65 | > 100 | 3.6 | > 100 | 3.45 | > 100 | 2.44 | > 100
C=CCNC(=S)N1CC(C)C(=O)Nc2ccccc21 (stereo not given) | – | > 100 | – | > 100 | – | > 100 | – | > 100 | – | > 100 | – | > 100 | – | > 100 | – | > 100 | – | > 100 | – | > 100
CC(=O)Oc1cc(C)ccc1[C@]1(C)CC[C@H](C)/C1=C\Br | 3.71 | 11.4 | 8.43 | 34 | 5.31 | 17.1 | 3.86 | 15.9 | 2.61 | 7.16 | 4.51 | 19.2 | 2.87 | 12.6 | 3.41 | 15 | 6.54 | 20.3 | 6.31 | 19.6
O=C1C=C(c2c(O)ccc3ccccc23)c2ccccc2C1=O | – | 23.4 | – | 6.52 | – | 5.21 | – | 5.06 | – | 6.02 | – | 13.1 | – | 3.79 | – | 15.3 | – | 4.92 | – | 16.8
N#CCCc1nc2ccc(Br)cc2c(=O)n1CCO | – | > 100 | – | > 100 | – | > 100 | – | > 100 | – | > 100 | – | > 100 | – | > 100 | – | > 100 | – | > 100 | – | > 100
CCOc1ccc(/C=C/C(=O)c2ccccc2)cc1 | 8.05 | 80.8 | 14.1 | 28 | 7.73 | 21.1 | 15.2 | 29.2 | 15.5 | 29.3 | 14.6 | 48 | 21.5 | 60.5 | 25 | 94.5 | 16.9 | 37.2 | 18.8 | 38.9
COc1ccc2c(c1)C(=O)CC(N)C2 (stereo not given) | – | > 100 | – | > 100 | – | > 100 | – | > 100 | – | > 100 | – | > 100 | – | > 100 | – | > 100 | – | > 100 | – | > 100
COc1ccc(NC(=O)C2C(=O)N(c3ccc(OC)cc3)C(=O)/C2=N/O)cc1 (stereo not given) | – | > 100 | – | 47 | – | > 100 | – | 30.5 | – | > 59.9 | – | > 100 | – | 31.6 | – | > 100 | – | > 88.1 | – | > 86.6

From PubChem BioAssay (NCI)
